Target: T1, GST-ALK5 (TGF-beta receptor I kinase) (Homo sapiens, UniProt P36897)
T1 sequence (P36897 34-503): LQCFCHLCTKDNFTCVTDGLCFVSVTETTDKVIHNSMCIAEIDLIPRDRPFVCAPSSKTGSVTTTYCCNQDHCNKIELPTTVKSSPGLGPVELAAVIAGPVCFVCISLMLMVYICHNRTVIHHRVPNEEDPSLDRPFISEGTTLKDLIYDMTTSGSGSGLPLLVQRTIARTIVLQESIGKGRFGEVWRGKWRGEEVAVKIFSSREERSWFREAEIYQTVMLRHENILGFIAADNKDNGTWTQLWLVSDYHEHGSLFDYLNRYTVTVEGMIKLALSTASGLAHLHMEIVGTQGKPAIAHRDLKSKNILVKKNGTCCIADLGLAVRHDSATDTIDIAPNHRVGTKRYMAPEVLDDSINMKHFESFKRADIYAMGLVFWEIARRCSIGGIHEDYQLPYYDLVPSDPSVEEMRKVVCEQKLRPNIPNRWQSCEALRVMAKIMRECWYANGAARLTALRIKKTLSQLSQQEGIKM
Test: In-vitro (enzyme) kinase assay, 384-well flashplate; inhibition of TGF-beta
Type: biochemical
Conditions: GST-ALK5 with GST-SMAD2 substrate, 3 mM ATP (33P-ATP), 30° C., 45 min
Description: In-Vitro (Enzyme) Assay for the Determination of the Efficacy of Inhibitors of the Inhibition of TGF-Beta-Promoted Effects Vermittelten Wirkungen
The kinase assay is carried out as 384-well flashplate assay. 31.2 nM of GST-ALK5, 439 nM of GST-SMAD2 and 3 mM of ATP (with 0.3 μCi of ^33P-ATP/well) are incubated in a total volume of 35 μl (20 mM of HEPES, 10 mM of MgCl, 5 mM of MnCl, 1 mM of DTT, 0.1% of BSA, pH 7.4) without or with test substance (5-10 concentrations) at 30° C. for 45 min. The reaction is stopped using 25 μl of 200 mM EDTA solution, filtered with suction at room temperature after 30 min, and the wells are washed with 3 times 100 μl of 0.9% NaCl solution. Radioactivity is measured in the TopCount. The IC50 values are calculated using RS1.

IC50 | SMILES
290 nM | N#Cc1c(N)nc2sc(C(N)=O)c(N)c2c1-c1nc2ccccc2s1 [Compound A16, 3,6-Diamino-4-benzothiazol-2-y1-5-cyanothieno[2,3-b]pyridine-2-carboxamide]
63 nM | CN1CCN(CCCNc2nc3sc(C(N)=O)c(N)c3c(-c3cc4ccccc4o3)c2C#N)CC1 [Compound A30, 3-amino-4-benzofuran-2-yl-5-cyano-6-[3-(4-methylpiperazin-1-yl)propylamino]thieno[2,3-b]pyridine-2-carboxamide]
180 nM | N#Cc1c(NCC(O)CO)nc2sc(C(N)=O)c(N)c2c1-c1cc2ccccc2o1 (stereo not shown) [Compound A41, 3-Amino-4-benzofuran-2-yl-5-cyano-6-(2,3-dihydroxypropylamino)thieno[2,3-b]pyridine-2-carboxamide]
240 nM | CCS(=O)(=O)N1CCN(c2nc3sc(C(N)=O)c(N)c3c(-c3cc(C)c(C)o3)c2C#N)CC1 [Compound A53, 3-Amino-5-cyano-4-(4,5-dimethylfuran-2-yl)-6-(4-ethanesulfonylpiperazin-1-yl)thieno[2,3-b]pyridine-2-carboxamide]

From patent US8202882B2, “5-cyanothienopyridines for the treatment of tumours” (Merck Patent Gesellschaft MIT Beschränkter Haftung, priority 2007, dated 2012)
